From ChEMBL document CHEMBL5528002, “Identification of selective 5-LOX and FLAP inhibitors as novel anti-inflammatory agents by ligand-based virtual screening” (Eur J Med Chem, 2024)

Key:
[1] = target: T1, Polyunsaturated fatty acid 5-lipoxygenase (Homo sapiens) (UniProt P09917); assay: Inhibition of 5-LOX in human Neutrophil assessed as enzyme remaining activity at 10 uM preincubated with compound for 15 mins followed by A23187 addition measured after 10 mins by RP-HPLC analysis relative to control; format: cell-based; details: time 25.0 min
T1 sequence (whole entry): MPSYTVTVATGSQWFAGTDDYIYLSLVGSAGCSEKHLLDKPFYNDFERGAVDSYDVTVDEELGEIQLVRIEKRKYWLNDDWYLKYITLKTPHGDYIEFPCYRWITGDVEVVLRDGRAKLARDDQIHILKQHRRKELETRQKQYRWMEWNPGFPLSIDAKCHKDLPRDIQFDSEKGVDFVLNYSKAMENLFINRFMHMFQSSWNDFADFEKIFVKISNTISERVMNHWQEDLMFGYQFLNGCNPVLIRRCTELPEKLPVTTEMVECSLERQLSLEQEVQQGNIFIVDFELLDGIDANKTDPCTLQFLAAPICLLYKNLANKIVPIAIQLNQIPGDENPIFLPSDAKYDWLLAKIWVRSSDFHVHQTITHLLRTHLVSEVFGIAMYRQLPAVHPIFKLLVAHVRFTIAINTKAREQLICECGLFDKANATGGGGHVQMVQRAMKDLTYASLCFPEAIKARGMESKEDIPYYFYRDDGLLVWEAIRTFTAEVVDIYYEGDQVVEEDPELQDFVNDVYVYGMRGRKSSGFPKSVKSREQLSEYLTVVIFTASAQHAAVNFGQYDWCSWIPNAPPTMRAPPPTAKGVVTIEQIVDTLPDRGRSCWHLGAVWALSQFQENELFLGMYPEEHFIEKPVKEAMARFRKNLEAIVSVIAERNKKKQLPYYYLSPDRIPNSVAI

Macrophage cell line [2] = assay: Effect on lipid mediator formation in human M1-like phenotype MDM cells by measuring 5-HETE formation at 10 uM pre-incubated for 15 mins followed by SACM stimulation and measured after 90 mins by UPLC-MS/MS analysis (reference value: 5357 +/- 1561 pg/ml); format: functional; details: time 105 min, 1.75 h
Macrophage cell line [3] = assay: Effect on lipid mediator formation in human M1-like phenotype MDM cells by measuring 5S,6R-diHETE formation at 10 uM pre-incubated for 15 mins followed by SACM stimulation and measured after 90 mins by UPLC-MS/MS analysis (reference value: 226 +/- 78 pg/ml); format: functional; details: time 105 min, 1.75 h
Macrophage cell line [4] = assay: Effect on lipid mediator formation in human M1-like phenotype MDM cells by measuring PGE2 formation at 10 uM pre-incubated for 15 mins followed by SACM stimulation and measured after 90 mins by UPLC-MS/MS analysis (reference value: 1789 +/- 871 pg/ml); format: functional; details: time 105 min, 1.75 h
Macrophage cell line [5] = assay: Effect on lipid mediator formation in human M1-like phenotype MDM cells by measuring 15-HETE formation at 10 uM pre-incubated for 15 mins followed by SACM stimulation and measured after 90 mins by UPLC-MS/MS analysis (reference value: 910 +/- 229 pg/ml); format: functional; details: time 105 min, 1.75 h
Macrophage cell line [6] = assay: Effect on lipid mediator formation in human M1-like phenotype MDM cells by measuring 12-HETE formation at 10 uM pre-incubated for 15 mins followed by SACM stimulation and measured after 90 mins by UPLC-MS/MS analysis (reference value: 181 +/- 39 pg/ml); format: functional; details: time 105 min, 1.75 h
Macrophage cell line [7] = assay: Effect on lipid mediator formation in human M1-like phenotype MDM cells by measuring 5-HETE formation at 10 uM pre-incubated for 15 mins followed by SACM stimulation and measured after 90 mins by UPLC-MS/MS analysis relative to control; format: functional; details: time 105 min, 1.75 h
Macrophage cell line [8] = assay: Effect on lipid mediator formation in human M1-like phenotype MDM cells by measuring 5S,6R-diHETE formation at 10 uM pre-incubated for 15 mins followed by SACM stimulation and measured after 90 mins by UPLC-MS/MS analysis relative to control; format: functional; details: time 105 min, 1.75 h
Macrophage cell line [9] = assay: Effect on lipid mediator formation in human M1-like phenotype MDM cells by measuring 17-HDHA formation at 10 uM pre-incubated for 15 mins followed by SACM stimulation and measured after 90 mins by UPLC-MS/MS analysis relative to control; format: functional; details: time 105 min, 1.75 h
Macrophage cell line [10] = assay: Effect on lipid mediator formation in human M1-like phenotype MDM cells by measuring 15-HEPE formation at 10 uM pre-incubated for 15 mins followed by SACM stimulation and measured after 90 mins by UPLC-MS/MS analysis relative to control; format: functional; details: time 105 min, 1.75 h
Macrophage cell line [11] = assay: Effect on lipid mediator formation in human M1-like phenotype MDM cells by measuring 12-HETE formation at 10 uM pre-incubated for 15 mins followed by SACM stimulation and measured after 90 mins by UPLC-MS/MS analysis relative to control; format: functional; details: time 105 min, 1.75 h
Macrophage cell line [12] = assay: Effect on lipid mediator formation in human M2-like phenotype MDM cells by measuring EPA formation at 10 uM pre-incubated for 15 mins followed by SACM stimulation and measured after 90 mins by UPLC-MS/MS analysis (reference value: 23813 +/- 1138 pg/ml); format: functional; details: time 105 min, 1.75 h
Macrophage cell line [13] = assay: Effect on lipid mediator formation in human M2-like phenotype MDM cells by measuring PGD2 formation at 10 uM pre-incubated for 15 mins followed by SACM stimulation and measured after 90 mins by UPLC-MS/MS analysis relative to control; format: functional; details: time 105 min, 1.75 h
Macrophage cell line [14] = assay: Effect on lipid mediator formation in human M2-like phenotype MDM cells by measuring 12-HETE formation at 10 uM pre-incubated for 15 mins followed by SACM stimulation and measured after 90 mins by UPLC-MS/MS analysis relative to control; format: functional; details: time 105 min, 1.75 h
Macrophage cell line [15] = assay: Effect on lipid mediator formation in human M2-like phenotype MDM cells by measuring MaR2 formation at 10 uM pre-incubated for 15 mins followed by SACM stimulation and measured after 90 mins by UPLC-MS/MS analysis relative to control; format: functional; details: time 105 min, 1.75 h

Question: How did the Activity [1] turn out when COc1ccc(C2=C/C(=C/c3ccc(O)cc3O)C(=O)O2)cc1 was run?
Answer: 19.6%

Question: And the Activity (Macrophage cell line [2])?
Answer: 361 pg/mL

Question: And the Activity (Macrophage cell line [3])?
Answer: 12 pg/mL

Question: And the Activity (Macrophage cell line [4])?
Answer: 1656 pg/mL

Question: And the Activity (Macrophage cell line [5])?
Answer: 823 pg/mL

Question: And the Activity (Macrophage cell line [6])?
Answer: 157 pg/mL

Question: And the Activity (Macrophage cell line [7])?
Answer: 7%

Question: What about the Activity (Macrophage cell line [8]) of the same compound?
Answer: 5%

Question: And the Activity (Macrophage cell line [9])?
Answer: 106%

Question: And the Activity (Macrophage cell line [10])?
Answer: 98%

Question: What about the Activity (Macrophage cell line [11]) of the same compound?
Answer: 87%

Question: And the Activity (Macrophage cell line [12])?
Answer: 24465 pg/mL

Question: And the Activity (Macrophage cell line [13])?
Answer: 201%

Question: What about the Activity (Macrophage cell line [14]) of the same compound?
Answer: 114%

Question: And the Activity (Macrophage cell line [15])?
Answer: 219%

Question: How did the Activity [1] turn out when Oc1ccc(CCC2CCC(c3ccc(O)cc3)CO2)cc1 (stereo not given) was run?
Answer: 4.2%

Question: What about the Activity (Macrophage cell line [2]) of the same compound?
Answer: 695 pg/mL

Question: What about the Activity (Macrophage cell line [3]) of the same compound?
Answer: 11 pg/mL

Question: What about the Activity (Macrophage cell line [4]) of the same compound?
Answer: 1236 pg/mL

Question: And the Activity (Macrophage cell line [5])?
Answer: 776 pg/mL

Question: And the Activity (Macrophage cell line [6])?
Answer: 158 pg/mL

Question: What about the Activity (Macrophage cell line [7]) of the same compound?
Answer: 13%

Question: What about the Activity (Macrophage cell line [8]) of the same compound?
Answer: 5%

Question: What about the Activity (Macrophage cell line [9]) of the same compound?
Answer: 135%

Question: What about the Activity (Macrophage cell line [10]) of the same compound?
Answer: 97%

Question: What about the Activity (Macrophage cell line [11]) of the same compound?
Answer: 87%

Question: What about the Activity (Macrophage cell line [12]) of the same compound?
Answer: 28427 pg/mL

Question: What about the Activity (Macrophage cell line [13]) of the same compound?
Answer: 131%

Question: What about the Activity (Macrophage cell line [14]) of the same compound?
Answer: 122%

Question: And the Activity (Macrophage cell line [15])?
Answer: 191%
